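Five compound concentrations were applied to cells in 96-well plates for 48 hours; endpoints were derived by simple linear interpolation of the resulting dose-response curve. GI50 is the concentration that inhibits growth by half.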 The source made the active and inactive calls. Cut-off read from the data, not from the text of the source: active = GI50 up to about 1.1 µM and inactive = higher.
Assays:
Test in all cases: NCI anticancer screen, dose series, 48 h
DMS-273 = system: DMS-273
KM-20L2 = system: KM-20L2
SNB-78 = system: SNB-78
RXF 631 = system: RXF 631
DLD-1 = system: DLD-1
HOP-18 = system: HOP-18
LXFL 529 = system: LXFL 529
XF498 = system: XF498
DMS-114 = system: DMS-114

Row | SMILES | GI50 (DMS-273) | GI50 (KM-20L2) | GI50 (SNB-78) | GI50 (RXF 631) | GI50 (DLD-1) | GI50 (HOP-18) | GI50 (LXFL 529) | GI50 (XF498) | GI50 (DMS-114)
1 | c1ccc2c(c1)C1=NCCN1c1ccccc1-2 | 1.74 µM (inactive) | 2.92 µM (inactive) | 4 µM (inactive) | 2.77 µM (inactive) | 1.77 µM (inactive) | 2.59 µM (inactive) | 3.06 µM (inactive) |  | 
2 | C=C1C(=O)OC2C1CCC(C)C1C=CC(=O)C12C (configuration not stated) | 4.08 µM (inactive) | 3.61 µM (inactive) | 3.14 µM (inactive) |  | 1.89 µM (inactive) | 6.65 µM (inactive) | 1.58 µM (inactive) | 3.29 µM (inactive) | 
3 | COc1ccc(S(=O)(=O)N/N=C/C(=O)O)cc1 | 518 µM (inactive) | > 1190 µM (inactive) | 830 µM (inactive) |  | > 906 µM (inactive) | > 1060 µM (inactive) |  | 8.09 µM (inactive) | 490 µM (inactive)
4 | C[N+]1(C)C/C(=C/c2ccc(F)cc2)C(=O)/C(=C\c2ccc(F)cc2)C1 | 30.6 µM (inactive) | > 100 µM (inactive) | > 100 µM (inactive) | > 100 µM (inactive) | 30.2 µM (inactive) | > 100 µM (inactive) | 38.9 µM (inactive) |  | 22.8 µM (inactive)
5 | O=C1CCCC(O)=C1SC1=C(O)CCCC1=O | > 100 µM (inactive) |  | > 100 µM (inactive) | > 100 µM (inactive) | 35.2 µM (inactive) | > 100 µM (inactive) |  |  | 
6 | CC(C)(C)c1ccc2c(c1)S(=O)(=O)Nc1cccc(c1)NS(=O)(=O)c1cc(C(C)(C)C)ccc1OCCOCCO2 | > 100 µM (inactive) |  | > 100 µM (inactive) | > 100 µM (inactive) | > 100 µM (inactive) | > 100 µM (inactive) |  |  | > 100 µM (inactive)
7 | Cc1ccc([S+]([O-])c2ccccc2[N+](=O)[O-])cc1 (configuration not stated) | 62.2 µM (inactive) |  | > 100 µM (inactive) | 35 µM (inactive) | > 100 µM (inactive) |  |  |  | 36.5 µM (inactive)
8 | COc1ccc2c(c1)CCc1c(C(C)=O)c3ccccc3n1C2 | 33 µM (inactive) |  | 52 µM (inactive) | 42.1 µM (inactive) | 42.4 µM (inactive) | 58.6 µM (inactive) | 12.1 µM (inactive) | 12.9 µM (inactive) | 31.7 µM (inactive)
9 | O=P1(O)c2ccccc2Nc2cc(C(F)(F)F)ccc21 | > 100 µM (inactive) | > 100 µM (inactive) | > 100 µM (inactive) |  | > 100 µM (inactive) | > 100 µM (inactive) | > 100 µM (inactive) | > 100 µM (inactive) | > 100 µM (inactive)
10 | CC1=C(C(=O)NCc2ccccc2)C(c2ccccc2[N+](=O)[O-])C(C(=O)NCc2ccccc2)=C(C)N1 | 10.6 µM (inactive) | 16.5 µM (inactive) | 11.8 µM (inactive) | 15.4 µM (inactive) | 6.73 µM (inactive) | 20.3 µM (inactive) | 10.7 µM (inactive) | 18 µM (inactive) | 12 µM (inactive)
11 | Cc1ccc(S(=O)(=O)N/N=C(\c2nc3ccc(Cl)cc3[nH]c2=O)C(O)c2ccco2)cc1 (configuration not stated) | > 100 µM (inactive) | > 100 µM (inactive) |  |  | > 100 µM (inactive) | > 100 µM (inactive) | > 100 µM (inactive) |  | 22.3 µM (inactive)
12 | C#CCn1c(=O)[nH]c(=O)c2cccnc21 | > 100 µM (inactive) | > 100 µM (inactive) | > 100 µM (inactive) | > 100 µM (inactive) | > 100 µM (inactive) | 63.5 µM (inactive) | > 100 µM (inactive) | > 100 µM (inactive) | > 10 µM (inactive)
13 | Ic1ncnc2c1ncn2C1CCCO1 (configuration not stated) | > 100 µM (inactive) | > 100 µM (inactive) | > 100 µM (inactive) |  | > 100 µM (inactive) | > 100 µM (inactive) |  | > 100 µM (inactive) | > 100 µM (inactive)
14 | COc1ccc2c3ccc4c(c3n(C)c2c1)C(=O)C=CC4=O | 34.7 µM (inactive) | > 100 µM (inactive) | 69.2 µM (inactive) |  | 15.3 µM (inactive) | 36.7 µM (inactive) | 15.2 µM (inactive) | 24.4 µM (inactive) | 
15 | OC1OC2COC(c3ccccc3)OC2C(O)C1O (configuration not stated) | > 100 µM (inactive) | > 100 µM (inactive) | > 100 µM (inactive) |  | > 100 µM (inactive) | > 100 µM (inactive) | > 100 µM (inactive) | > 100 µM (inactive) | > 100 µM (inactive)
16 | CCOC(=O)C(C)(C)Oc1ccc(/C=C/C(=O)c2ccc(Cl)cc2)cc1 | 16.7 µM (inactive) | 17.8 µM (inactive) |  | 19.5 µM (inactive) | 14.1 µM (inactive) |  | 15.8 µM (inactive) | 18.8 µM (inactive) | 17.4 µM (inactive)
17 | O=C(/C=C/c1ccccc1O)C(c1ccccc1)c1ccccc1 | > 100 µM (inactive) | > 100 µM (inactive) | > 100 µM (inactive) | > 100 µM (inactive) | > 100 µM (inactive) | > 100 µM (inactive) | > 100 µM (inactive) | > 100 µM (inactive) | 63.2 µM (inactive)
18 | CS(=O)(=O)C1S(=O)(=O)OCCOS1(=O)=O | > 100 µM (inactive) | > 100 µM (inactive) | > 100 µM (inactive) | > 100 µM (inactive) | > 100 µM (inactive) | 73.6 µM (inactive) | > 100 µM (inactive) | > 100 µM (inactive) | > 100 µM (inactive)
19 | O=C(O)C(CS)Nc1c2ccccc2nc2ccccc12 (configuration not stated) | 34.6 µM (inactive) | 49.8 µM (inactive) |  |  | 78.9 µM (inactive) |  | > 100 µM (inactive) | 24.9 µM (inactive) | 27.7 µM (inactive)
20 | CC#CCC1CCC(OCC)=CC1=O (configuration not stated) | > 100 µM (inactive) | > 100 µM (inactive) | > 100 µM (inactive) | > 100 µM (inactive) | > 100 µM (inactive) | > 100 µM (inactive) | > 100 µM (inactive) | > 100 µM (inactive) | > 100 µM (inactive)
21 | COc1ccc(Br)c(C(=O)N2CCc3ccccc32)c1N | 15.7 µM (inactive) | 69.5 µM (inactive) | > 100 µM (inactive) |  | 42.9 µM (inactive) | 47.9 µM (inactive) | 59.8 µM (inactive) | 31.9 µM (inactive) | 30.4 µM (inactive)
22 | CC(C)=CC(=O)C/C(=N\NC(N)=S)C(=O)Nc1ccc(Cl)cc1 | > 100 µM (inactive) | > 100 µM (inactive) | > 100 µM (inactive) |  | > 100 µM (inactive) | > 100 µM (inactive) | > 100 µM (inactive) |  | > 100 µM (inactive)
23 | Cc1cn(C2CC(O)C(COC(=O)c3ccccc3)O2)c(=O)[nH]c1=O (configuration not stated) | > 100 µM (inactive) | > 100 µM (inactive) | > 100 µM (inactive) | > 100 µM (inactive) | > 100 µM (inactive) | > 100 µM (inactive) | > 100 µM (inactive) | > 100 µM (inactive) | 
24 | CC(=O)n1cc(CC(C)O)c(=O)[nH]c1=O (configuration not stated) | > 100 µM (inactive) | > 100 µM (inactive) | > 100 µM (inactive) | > 100 µM (inactive) | > 100 µM (inactive) | > 100 µM (inactive) | > 100 µM (inactive) | > 100 µM (inactive) | > 100 µM (inactive)
25 | COc1cc(C2c3cc4c(cc3[C@@H](Nc3ccc(C#N)cc3)C3COC(=O)[C@H]23)OCO4)cc(OC)c1O (some centres not stated) |  | 2.33 µM (inactive) | 3.03 µM (inactive) |  | 1.27 µM (inactive) | 1.16 µM (inactive) |  | 3.2 µM (inactive) | 0.977 µM (active)
26 | CC(C)=CCCC1(C)C=Cc2c(c(C)cc3c2[nH]c2cc(O)ccc23)O1 (configuration not stated) | > 25 µM (inactive) | > 25 µM (inactive) |  |  | > 25 µM (inactive) | 7.36 µM (inactive) | > 25 µM (inactive) | > 25 µM (inactive) | > 25 µM (inactive)

From ChEMBL document CHEMBL1201862, “PubChem BioAssay data set” (2004)
